Reference: ChEMBL document CHEMBL1127908, “A congener study of zileuton reveals interesting effects on glucuronidation rates” (Bioorg Med Chem Lett, 1994)

How the values were obtained:
Homo sapiens [1] = species on record: Homo sapiens; assay: Concentration required for the inhibition of LTB4 production in human whole blood; assay type: functional, organism-based
Homo sapiens [2] = species on record: Homo sapiens; assay: Tested for its rate of glucuronidation in 0.5-2.5 mg/mL of human microsomal protein; assay type: functional
Homo sapiens [3] = species on record: Homo sapiens; assay: Tested for its rate of glucuronidation in 0.5-2.5 mg/mL of human microsomal protein; not detected; assay type: functional
Homo sapiens [4] = species on record: Homo sapiens; assay: Tested for its rate of glucuronidation in 0.5-2.5 mg/mL of human microsomal protein; Not detected; assay type: functional

| IC50 (Homo sapiens [1]) [nM] | SMILES | Glucuronidation rate (nM min-1 mg-1) (Homo sapiens [2]) | also measured |
| --- | --- | --- | --- |
| 950 | CC(c1cc2cccnc2s1)N(O)C(N)=O (stereo in doubt; (+)-2b) [listing 1 of 2 here] | – | – |
| – | CC(c1cc2ccncc2s1)N(O)C(N)=O (single isomer, unassigned; (+)) [listing 1 of 2 here] | 0.053 | – |
| 3700 | CC(c1cc2cccnc2s1)N(O)C(N)=O (single isomer, unassigned; (-)) [listing 1 of 2 here] | – | – |
| 640 | CC(c1cc2ccccc2s1)N(O)C(N)=O (stereo in doubt; (+)-1b) [ZILEUTON] | – | – |
| – | CC(c1cc2cccnc2o1)N(O)C(N)=O (stereo in doubt; (+)-5b) [listing 1 of 2 here] | – | Glucuronidation rate (Homo sapiens [3]): Not detected |
| – | CC(c1cc2ccncc2s1)N(O)C(N)=O (stereo in doubt; (-)-3a) [listing 1 of 2 here] | 0.241 | – |
| – | CC(c1cc2cccnc2o1)N(O)C(N)=O (single isomer, unassigned; (-)) [listing 1 of 2 here] | – | Glucuronidation rate (Homo sapiens [4]): Not detected |
| – | CC(c1cc2cccnc2s1)N(O)C(N)=O (single isomer, unassigned; (-)) [listing 2 of 2 here] | 0.058 | – |
| 3120 | CC(c1cc2ncccc2s1)N(O)C(N)=O (single isomer, unassigned; (+)) [listing 1 of 2 here] | – | – |
| 2780 | CC(c1cc2cccnc2o1)N(O)C(N)=O (stereo in doubt; (+)-5b) [listing 2 of 2 here] | – | – |
| – | CC(c1cc2ccccc2s1)N(O)C(N)=O (single isomer, unassigned; (-)) | 0.155 | – |
| – | CC(c1cc2ccncc2s1)N(O)C(N)=O (stereo in doubt; (-)-3a) [listing 2 of 2 here] | – | IC50 (Homo sapiens [1]; Homo sapiens, Blood): 2000 nM |
| 1880 | CC(c1cc2ccccc2s1)N(O)C(N)=O (single isomer, unassigned; (-)) [ZILEUTON] | – | – |
| 6620 | CC(c1cc2ncccc2s1)N(O)C(N)=O (stereo in doubt; (-)-4a) [listing 1 of 2 here] | – | – |
| – | CC(c1cc2cccnc2s1)N(O)C(N)=O (stereo in doubt; (+)-2b) [listing 2 of 2 here] | 0.012 | – |
| – | CC(c1cc2ncccc2s1)N(O)C(N)=O (single isomer, unassigned; (+)) [listing 2 of 2 here] | 0.006 | – |
| 1500 | CC(c1cc2ccncc2s1)N(O)C(N)=O (single isomer, unassigned; (+)) [listing 2 of 2 here] | – | – |
| – | CC(c1cc2ccccc2s1)N(O)C(N)=O (stereo in doubt; (+)-1b) | 0.025 | – |
| 11300 | CC(c1cc2cccnc2o1)N(O)C(N)=O (single isomer, unassigned; (-)) [listing 2 of 2 here] | – | – |
| – | CC(c1cc2ncccc2s1)N(O)C(N)=O (stereo in doubt; (-)-4a) [listing 2 of 2 here] | 0.037 | – |
